The test deals with KRAS PDC tumor spheroids (HUVEC+MSC), viability. Put plainly: Anticancer human tumor 254851-301-R-J1-PDC patient-derived colon carcinoma cell line growth inhibition [KRAS2]. The note with it: for viability, T/C: stronger effect = lower value. The procedure, abridged: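 KRAS-mutant tumor cells were grown as spheroids with HUVEC endothelial cells and human MSCs as stroma. Targeted agents were tested alone and with KRAS pathway inhibitors. Doses started at or near clinical Cmax, or 10 microM, descending half-log.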

“And” between values parts separate entries of the source, which are not always exact repeats. Identical values can stand only once.
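Also: spheroids exposed to compounds for seven days before readout.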
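For viability, T/C in this document: 100% = DMSO vehicle control luminescence of the spheroids.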

On to `CN(C)C/C=C/C(=O)Nc1cc2c(Nc3ccc(F)c(Cl)c3)ncnc2cc1O[C@H]1CCOC1` + C=CC(=O)N1CCN(c2nc(=O)n(-c3c(C)ccnc3C(C)C)c3nc(-c4c(O)cccc4F)c(F)cc23)C(C)C1, for which the IC50 reads like this: (curve of first compound, second compound 0.1 µM) over 100 nM; (curve of first compound, second compound 0.316 µM) over 100 nM; (curve of first compound, second compound 1 µM) over 100 nM; (curve of first compound, second compound 3.16 µM) over 100 nM; (curve of first compound, second compound 10 µM) over 100 nM. In addition, the viability, T/C is, setting by setting: (second compound 0.1 µM, first compound 0.000316 µM) 110%; (second compound 0.1 µM, first compound 0.001 µM) 103%; (second compound 0.1 µM, first compound 0.00316 µM) 99.5%; (second compound 0.1 µM, first compound 0.01 µM) 93.8%; (second compound 0.1 µM, first compound 0.0316 µM) 97.2%; (second compound 0.1 µM, first compound 0.1 µM) 93%. The viability, T/C (second compound 0.316 µM, first compound 0.000316 µM) was 104%; the viability, T/C (second compound 0.316 µM, first compound 0.001 µM) was 102%; the viability, T/C (second compound 0.316 µM, first compound 0.00316 µM) was 96.5%; the viability, T/C (second compound 0.316 µM, first compound 0.01 µM) was 89.6%; the viability, T/C (second compound 0.316 µM, first compound 0.0316 µM) is 93.4%; the viability, T/C (second compound 0.316 µM, first compound 0.1 µM) is 75.2%. For the same compound, the viability, T/C is 99.5% (second compound 1 µM, first compound 0.000316 µM); 108% (second compound 1 µM, first compound 0.001 µM); 86.1% (second compound 1 µM, first compound 0.00316 µM); 87.2% (second compound 1 µM, first compound 0.01 µM); 83.6% (second compound 1 µM, first compound 0.0316 µM); 73.5% (second compound 1 µM, first compound 0.1 µM). The viability, T/C was 101% (second compound 3.16 µM, first compound 0.000316 µM); 98.7% (second compound 3.16 µM, first compound 0.001 µM); 87.1% (second compound 3.16 µM, first compound 0.00316 µM); 93.8% (second compound 3.16 µM, first compound 0.01 µM); 100% (second compound 3.16 µM, first compound 0.0316 µM); 82.5% (second compound 3.16 µM, first compound 0.1 µM). Besides, the viability, T/C (second compound 10 µM, first compound 0.000316 µM) is 109%; the viability, T/C (second compound 10 µM, first compound 0.001 µM) is 99.3%; the viability, T/C (second compound 10 µM, first compound 0.00316 µM) was 91.9%; the viability, T/C (second compound 10 µM, first compound 0.01 µM) is 94.6%; the viability, T/C (second compound 10 µM, first compound 0.0316 µM) was 95.6%; the viability, T/C (second compound 10 µM, first compound 0.1 µM) was 74.4%.
Turning to `CC(C)n1nc(-c2ccc3oc(N)nc3c2)c2c(N)ncnc21`, the viability, T/C (compound 0.000316 µM) is 107% [middle of 5 runs]; the viability, T/C (compound 0.001 µM) is 99.5% (2×) and 104% (2×) and 101%; the viability, T/C (compound 0.00316 µM) is 92.6% [middle of 5 runs]; the viability, T/C (compound 0.01 µM) was 63.2% [middle of 5 runs]; the viability, T/C (compound 0.0316 µM) is 33.3% [middle of 5 runs]; the viability, T/C (compound 0.1 µM) was 24.5% [middle of 5 runs]. Where the note is “curve of compound”, the IC50 is 18.9 nM [middle of 4 runs].

For orientation: IC50 means the midpoint of a concentration-inhibition curve. As usually defined, the viability, T/C is the result in the treated group divided by that in the control group, in per cent.
